Key:
[1] = Oxygen content decay of O2-saturated dispersions on ambient air equilibration; conditions: first-order fit, SDS 9 mM, Triton X-100 3.8 mM; for Release rate (oxygen): PFTD-PEG 3.8 mM
Excerpt: Another commonly used method consists in measuring the rate of decrease of the oxygen concentration of a given micellar solution from O2-saturation to equilibrium with ambient air. In the case of perfluorinated micelles, any observed difference in deoxygenation rate can be directly related the diffusion of O2 from the perfluorinated core to the aqueous medium while oxygen dissolved in the saturated dispersant (i.e. water) escapes to the atmosphere.
To assess the dioxygen release capacity of PFTD-PEG micelles, colloids (4 mL, c=3.8 mM and 7.6 mM) were pre-saturated with dioxygen under agitation in a sealed round-bottom flask. After saturation, agitation was stopped and the PFTD-PEG micellar suspension was left to equilibrate with ambient air. Evolution of dioxygen concentration in the medium over time was recorded using a dissolved dioxygen sensor.
In this equation, y0 corresponds to the value of y at t=0 s while A corresponds to the amplitude of the curve such that A=Plateau−y0. This model provides essential parameters such as the oxygen half-life and the oxygen release rate from the different micellar suspensions.

[2] = Oxygen release from O2-saturated colloid injected into degassed water; format: physicochemical; conditions: 200 μL of 7.6 mM surfactant colloid into degassed water
Description: To this end, a small volume of oxygen-saturated micelle colloid was injected with variable PFTD-PEG concentrations into a large volume of degassed water and the release of oxygen was monitored by continuous electrochemical monitoring over time (FIG. 3A). From this set of experiments, a clear correlation between the micelle concentration and the amount of released oxygen was observed. In fact, 15 min after addition of 200 μL of a 5, 10, or 20 mg mL^−1 PFTD-PEG colloid to 100 mL of degassed water, the oxygen concentration reached values of 2.9, 4.3, and 5.6 μM, respectively. As a reference, the oxygen concentration reached only 1.1 μM when the same volume of oxygen-saturated water was added instead of the micelle colloid. The effect of the fluorinated PFTD-PEG micelles on oxygen delivery was compared to that of micelles obtained from commonly used amphiphiles, namely sodium dodecyl sulfate (SDS) and Triton X100.

| Compound | Release rate (oxygen) [1] | oxygen concentration [2] | t1/2 (oxygen half-life) ([1]; PFTD-PEG 3.8 mM (10 mg mL^−1)) |
| --- | --- | --- | --- |
| CCCCCCCCCCCCOS(=O)(=O)[O-].[Na+] [SDS, sodium dodecyl sulfate] | 2.61 ± 0.03 10^−4 s^−1 | 2.7 mM | – |
| Triton X-100 | 2.49 ± 0.04 10^−4 s^−1 | 3.6 mM | 46.422 ± 0.832 min |
